According to the NIST ThermoML archive (doi:10.1016/j.jct.2016.09.005):

Conditions: Liquid, Brillouin Light Scattering

CC(C)OC(C)C [diisopropyl ether]
Conditions | speed of sound [m/s]
302.38 K, 10000 kPa | 1087.1
302.39 K, 4000 kPa | 1011.9
302.48 K, 5500 kPa | 1029.7
302.8 K, 8500 kPa | 1052.4
302.91 K, 2500 kPa | 1002.7
302.96 K, 1000 kPa | 986.08
303.07 K, 7000 kPa | 1037.8
307.45 K, 4000 kPa | 987.23
307.61 K, 10000 kPa | 1066.1
307.86 K, 5500 kPa | 1009.4
307.87 K, 8500 kPa | 1038.9
308 K, 1000 kPa | 965.01
308.01 K, 7000 kPa | 1020.5
308.28 K, 2500 kPa | 974.68
312.8 K, 10000 kPa | 1051
312.81 K, 8500 kPa | 1010.4
312.88 K, 7000 kPa | 995.2
312.91 K, 2500 kPa | 961.97
312.92 K, 5500 kPa | 979.14
313.05 K, 1000 kPa | 943.07
313.14 K, 4000 kPa | 969.4
317.72 K, 10000 kPa | 1030.2
318.01 K, 5500 kPa | 968.08
318.11 K, 1000 kPa | 924.03
318.13 K, 8500 kPa | 996.14
318.14 K, 2500 kPa | 928.92
318.38 K, 7000 kPa | 974.91
318.49 K, 4000 kPa | 951.1
322.82 K, 10000 kPa | 1007.1
323.15 K, 7000 kPa | 960.56
323.3 K, 8500 kPa | 972.88
323.31 K, 2500 kPa | 912.04
323.5 K, 5500 kPa | 943.6
323.62 K, 1000 kPa | 901.5
323.71 K, 4000 kPa | 924.8
327.56 K, 10000 kPa | 994.72
327.75 K, 8500 kPa | 964.89
327.97 K, 1000 kPa | 881.1
328.08 K, 2500 kPa | 887.66
328.1 K, 4000 kPa | 901.06
328.13 K, 7000 kPa | 936.62
328.17 K, 5500 kPa | 923.15
332.93 K, 10000 kPa | 963.31
332.94 K, 2500 kPa | 869.98
333.01 K, 7000 kPa | 920.95
333.08 K, 1000 kPa | 855
333.25 K, 8500 kPa | 943.92
333.31 K, 4000 kPa | 888.08
333.57 K, 5500 kPa | 897.12
337.63 K, 5500 kPa | 882.64
337.69 K, 1000 kPa | 846.25
337.75 K, 2500 kPa | 857.76
337.85 K, 10000 kPa | 946.87
337.89 K, 8500 kPa | 917.48
337.93 K, 4000 kPa | 867.64
338.11 K, 7000 kPa | 896.43
343.33 K, 1000 kPa | 819.28
343.57 K, 8500 kPa | 904.65
343.67 K, 4000 kPa | 845.53
343.79 K, 7000 kPa | 878.38
343.82 K, 2500 kPa | 827.84
343.88 K, 10000 kPa | 923.89
343.97 K, 5500 kPa | 864.56
347.31 K, 10000 kPa | 915.04
347.41 K, 2500 kPa | 807.03
347.59 K, 1000 kPa | 802.59
347.69 K, 4000 kPa | 832.86
347.76 K, 8500 kPa | 887.44
347.81 K, 5500 kPa | 843.4
347.81 K, 7000 kPa | 867.06
352.94 K, 4000 kPa | 804.7
353.38 K, 8500 kPa | 862.02
353.45 K, 1000 kPa | 775.82
353.59 K, 2500 kPa | 792.6
353.6 K, 5500 kPa | 819.82
353.71 K, 7000 kPa | 845.61
353.81 K, 10000 kPa | 893.76
358.06 K, 10000 kPa | 870.54
358.52 K, 8500 kPa | 846.91
358.55 K, 5500 kPa | 807.15
358.76 K, 1000 kPa | 755.17
358.93 K, 2500 kPa | 760.2
358.96 K, 4000 kPa | 782.98
359.03 K, 7000 kPa | 821.85
362.67 K, 1000 kPa | 737.96
362.78 K, 5500 kPa | 786.13
362.9 K, 10000 kPa | 855.96
362.95 K, 8500 kPa | 828.91
363.08 K, 7000 kPa | 809.07
363.21 K, 2500 kPa | 747.41
363.41 K, 4000 kPa | 767.15
367.56 K, 7000 kPa | 793.16
367.57 K, 5500 kPa | 769.09
367.78 K, 4000 kPa | 751.56
367.82 K, 8500 kPa | 809.14
367.96 K, 10000 kPa | 835.29
368.03 K, 1000 kPa | 715.17
368.26 K, 2500 kPa | 726.3
372.68 K, 10000 kPa | 816.27
372.8 K, 7000 kPa | 771.64
373.15 K, 5500 kPa | 753.88
373.21 K, 8500 kPa | 788.43
373.29 K, 2500 kPa | 712.12
373.37 K, 4000 kPa | 726.56
373.57 K, 1000 kPa | 697.04
377.41 K, 1000 kPa | 679.66
377.54 K, 7000 kPa | 749.64
377.85 K, 4000 kPa | 712.4
377.85 K, 5500 kPa | 728.98
377.97 K, 8500 kPa | 770.84
378.05 K, 2500 kPa | 690.57
378.3 K, 10000 kPa | 803.55
382.72 K, 1000 kPa | 654.9
382.77 K, 7000 kPa | 734.01
382.78 K, 10000 kPa | 787
382.83 K, 5500 kPa | 710.48
382.88 K, 8500 kPa | 754.35
383.06 K, 2500 kPa | 665.89
383.26 K, 4000 kPa | 691.26
387.78 K, 4000 kPa | 674.22
388 K, 7000 kPa | 713.08
388.09 K, 5500 kPa | 694.59
388.3 K, 8500 kPa | 735.65
388.31 K, 2500 kPa | 653.57
388.68 K, 1000 kPa | 634.3
388.86 K, 10000 kPa | 760.66
392.26 K, 2500 kPa | 635.1
392.28 K, 5500 kPa | 675.48
392.33 K, 7000 kPa | 701.13
392.5 K, 4000 kPa | 658.79
392.65 K, 10000 kPa | 747.04
392.79 K, 8500 kPa | 722.68
393.19 K, 1000 kPa | 615.78
397.81 K, 4000 kPa | 632.66
397.95 K, 2500 kPa | 613.31
398.22 K, 5500 kPa | 653.67
398.25 K, 1000 kPa | 589.15
398.32 K, 8500 kPa | 702.44
398.37 K, 7000 kPa | 674.76
398.9 K, 10000 kPa | 728.83
402.67 K, 7000 kPa | 662.53
402.77 K, 5500 kPa | 638.47
402.88 K, 2500 kPa | 590.27
403.23 K, 8500 kPa | 683.98
403.4 K, 4000 kPa | 612.03
403.45 K, 1000 kPa | 570.56
403.45 K, 10000 kPa | 709.11
407.64 K, 5500 kPa | 623.08
407.75 K, 10000 kPa | 693.65
408.1 K, 7000 kPa | 642.44
408.23 K, 8500 kPa | 667.12
408.31 K, 4000 kPa | 592.12
408.37 K, 2500 kPa | 571.15
408.65 K, 1000 kPa | 544.68
412.43 K, 2500 kPa | 550.12
412.43 K, 5500 kPa | 606.9
412.66 K, 1000 kPa | 530.21
412.7 K, 4000 kPa | 576.58
412.83 K, 10000 kPa | 681.56
412.95 K, 8500 kPa | 646.94
413.28 K, 7000 kPa | 622.07
418.22 K, 2500 kPa | 532.67
418.42 K, 8500 kPa | 627.35
418.54 K, 5500 kPa | 583.39
418.59 K, 10000 kPa | 659.95
418.87 K, 7000 kPa | 603.43
418.91 K, 4000 kPa | 554.62
419.01 K, 1000 kPa | 502.48
423.21 K, 1000 kPa | 482.17
423.5 K, 4000 kPa | 536.96
423.62 K, 8500 kPa | 613.79
423.75 K, 7000 kPa | 590.42
423.79 K, 5500 kPa | 567.31
423.9 K, 10000 kPa | 640.34
424.09 K, 2500 kPa | 502.49
427.41 K, 7000 kPa | 578.56
427.66 K, 1000 kPa | 460.04
427.92 K, 8500 kPa | 597.25
428.03 K, 4000 kPa | 520.63
428.26 K, 2500 kPa | 490.5
428.45 K, 5500 kPa | 546.98
428.53 K, 10000 kPa | 625.16
432.35 K, 10000 kPa | 618.58
432.63 K, 5500 kPa | 529.89
432.77 K, 8500 kPa | 581.79
432.83 K, 7000 kPa | 558.11

Conditions | speed of sound [m/s]
303.08 K | 986.38
318.27 K | 915.66
333.62 K | 852.5
347.96 K | 790.74
362.87 K | 731.21
378.14 K | 662.26
393.15 K | 593.47
402.97 K | 552.35
412.75 K | 514.15
422.75 K | 469.11
432.74 K | 426.77
